A value given as a limit tells only on which side of the number the result lay.

T1 sequence (Q8NER1 whole entry): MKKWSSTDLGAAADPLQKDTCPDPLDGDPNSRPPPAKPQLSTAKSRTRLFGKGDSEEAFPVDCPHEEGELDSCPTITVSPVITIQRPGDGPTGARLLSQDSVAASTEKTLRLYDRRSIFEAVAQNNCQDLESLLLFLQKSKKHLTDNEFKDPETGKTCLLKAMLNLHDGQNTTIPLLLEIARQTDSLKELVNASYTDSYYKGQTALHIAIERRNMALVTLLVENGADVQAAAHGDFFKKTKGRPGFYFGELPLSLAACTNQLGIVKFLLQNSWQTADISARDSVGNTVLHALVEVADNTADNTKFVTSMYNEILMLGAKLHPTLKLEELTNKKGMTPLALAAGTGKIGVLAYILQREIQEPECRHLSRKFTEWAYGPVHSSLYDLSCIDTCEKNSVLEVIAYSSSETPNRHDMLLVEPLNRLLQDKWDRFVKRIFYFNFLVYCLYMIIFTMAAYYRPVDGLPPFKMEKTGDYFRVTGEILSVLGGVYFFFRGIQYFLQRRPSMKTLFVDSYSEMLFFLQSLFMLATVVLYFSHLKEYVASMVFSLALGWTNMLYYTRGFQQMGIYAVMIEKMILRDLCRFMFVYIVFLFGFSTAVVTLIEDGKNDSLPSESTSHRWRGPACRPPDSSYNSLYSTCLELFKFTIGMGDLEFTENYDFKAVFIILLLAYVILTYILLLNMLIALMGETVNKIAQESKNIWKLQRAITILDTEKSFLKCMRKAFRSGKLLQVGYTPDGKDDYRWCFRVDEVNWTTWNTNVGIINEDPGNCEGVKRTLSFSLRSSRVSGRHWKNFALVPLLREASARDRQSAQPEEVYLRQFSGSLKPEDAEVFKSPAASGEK

The assay concerns the target T1, human VR1 (Homo sapiens, UniProt Q8NER1).
T1 construct: expressed in transfected cells
Kind of assay: Inhibition of Ca2+ entry in cells caused by proton, in rat glioma (C6BU1) cells stably expressing human VR1 (Fura 2 fluorescence). Format: cell-based. The following applies: inhibition of proton-induced Ca2+ entry. An outline of the steps: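 Fura 2-loaded C6BU1 cells in 20 mM MES buffer pH 6.8 with added Ca2+ were preincubated 10 min with compound (final 1 μM to 0.1 nM, 1% DMSO). Proton stimulation brought pH to 5.5. Fluorescence rise was measured, and IC50 was derived from % inhibition versus DMSO control.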
For `Cc1cnc(N2c3cccc(C(=O)Nc4ccc(N5CCOCC5)c(F)c4)c3OC[C@@H]2CO)s1` [Example 6-9], the IC50 was less than 0.1 µM.

For the molecule `Cc1cnc(N2c3cccc(C(=O)Nc4ccc(C(F)(F)F)nc4)c3OC[C@@H]2CO)s1` [Example 6-10], the IC50 is less than 0.1 µM.

`Cc1cnc(N2c3cccc(C(=O)Nc4ccc(OC(F)(F)F)cc4)c3OC[C@@H]2CO)o1` [Example 6-11, (S)-3-hydroxymethyl-4-(5-methyloxazol-2-yl)-N-(4-trifluoromethoxyphenyl)-3,4-dihydro-2H-benzo[1,4]oxazine-8-carboxamide]: the IC50 is less than 0.1 µM.

`Cc1cnc(N2c3cccc(C(=O)Nc4ccc(C(F)(F)F)cc4)c3OC[C@@H]2CO)o1` [Example 6-12, (S)-3-hydroxymethyl-4-(5-methyloxazol-2-yl)-N-(4-trifluoromethylphenyl)-3,4-dihydro-2H-benzo[1,4]oxazine-8-carboxamide] returned an IC50 of less than 0.1 µM.

`Cc1nc(N2c3cccc(C(=O)Nc4ccc(OC(F)(F)F)cc4)c3OC[C@@H]2CO)sc1C` [Example 6-13, (S)-4-(4,5-dimethylthiazol-2-yl)-3-hydroxymethyl-N-(4-trifluoromethoxyphenyl)-3,4-dihydro-2H-benzo[1,4]oxazine-8-carboxamide] displayed a 50% inhibitory concentration (IC50) of less than 0.1 µM.

On to `Cc1nc(N2c3cccc(C(=O)Nc4ccc(C(F)(F)F)cc4)c3OC[C@@H]2CO)sc1C` [Example 6-14, (S)-4-(4,5-dimethylthiazol-2-yl)-3-hydroxymethyl-N-(4-trifluoromethylphenyl)-3,4-dihydro-2H-benzo[1,4]oxazine-8-carboxamide], for which the IC50 was less than 0.1 µM.

As for `COc1ccc(N2CCOc3c(C(=O)Nc4ccc(C(C)(C)C)cc4)cccc32)cc1` [Example 7-01, N-(4-tert-butylphenyl)-4-(4-methoxyphenyl)-3,4-dihydro-2H-benzo[1,4]oxazine-8-carboxamide], the IC50 is less than 0.1 µM.

For the molecule `COc1ccc(N2CCOc3c(C(=O)Nc4ccc(OCC(C)C)cc4)cccc32)cc1` [Example 7-02, N-(4-isobutyloxyphenyl)-4-(4-methoxyphenyl)-3,4-dihydro-2H-benzo[1,4]oxazine-8-carboxamide], the IC50 was less than 0.1 µM.

The molecule `COc1ccc(N2CCOc3c(C(=O)Nc4ccc(Cl)cc4)cccc32)cc1` [Example 7-03, N-(4-chlorophenyl)-4-(4-methoxyphenyl)-3,4-dihydro-2H-benzo[1,4]oxazine-8-carboxamide] yielded an IC50 of less than 0.1 µM.

For `O=C(Nc1ccc(OC(F)(F)F)cc1)c1cccc2c1OC[C@H](CO)N2c1ccccc1Cl` [Example 7-04, (S)-4-(2-chlorophenyl)-3-hydroxymethyl-N-(4-trifluoromethoxyphenyl)-3,4-dihydro-2H-benzo[1,4]oxazine-8-carboxamide], the half-inhibitory concentration (IC50) is less than 0.1 µM.

For `O=C(Nc1ccc(C(F)(F)F)cc1)c1cccc2c1OC[C@H](CO)N2c1ccccc1Cl` [Example 7-05], the IC50 is less than 0.1 µM.

In the case of `O=C(Nc1ccc(C(F)(F)F)c(F)c1)c1cccc2c1OC[C@H](CO)N2c1ccccc1Cl` [Example 7-06], the IC50 was less than 0.1 µM.

Consider `O=C(Nc1ccc(OC(F)(F)F)cc1)c1cccc2c1OC[C@H](CO)N2c1ccc(Cl)cc1` [Example 7-07], for which the IC50 was less than 0.1 µM.

Turning to `COc1ccc(N2c3cccc(C(=O)Nc4ccc(OC(F)(F)F)cc4)c3OC[C@@H]2CO)cc1` [Example 7-08], the IC50 is less than 0.1 µM.

`COc1ccc(N2c3cccc(C(=O)Nc4ccc(C(F)(F)F)cc4)c3OC[C@@H]2CO)cc1` [Example 7-09] displayed an IC50 of less than 0.1 µM.

`O=C(Nc1ccc(C(F)(F)F)cc1)c1cccc2c1OC[C@H](CO)N2c1ccc(Cl)cc1` [Example 7-10] displayed an IC50 of less than 0.1 µM.

As for `O=C(Nc1ccc(Cl)cc1)c1cccc2c1OC[C@H](CO)N2c1ccc(Cl)cc1` [Example 7-11], the IC50 is less than 0.1 µM.

As a reminder, the IC50 is the concentration that inhibits the measured activity by half. Read a high IC50 as a need for much substance.

The record behind these values is patent publication US8008292B2, “Condensed benzamide compounds and inhibitors of vanilloid receptor subtype 1 (VR1) activity” (Japan Tobacco Inc., priority 2004, dated 2011).
